From patent US9079886B2, “Substituted triazole derivatives as gamma secretase modulators” (Janssen Pharmaceuticals, Inc., priority 2010, dated 2015)
Where two headings read alike, the source gives them in different places.

How the values were obtained:
[1] = system: Aβ42 and Aβtotal in the soluble fraction of brain homogenates; test: In vivo Aβ42 lowering: brain soluble Aβ42 and Aβtotal by ELISA after a single oral dose; set-up: species or system mouse; conditions: dose 30 mg/kg oral dosing, 4 h after dosing; for response vs control in vivo at 30 mg/kg: Mus musculus, po, 4 h
Text: To determine whether acute administration of an Aβ42 lowering agent would reduce Aβ42 levels in vivo, non-transgenic rodents, e.g. mice or rats were used. Animals treated with the Aβ42 lowering agent were examined and compared to those untreated or treated with vehicle and brain levels of soluble Aβ42 and total A13 were quantitated by standard techniques, for example, using ELISA. Treatment periods varied from hours (h) to days and were adjusted based on the results of the Aβ42 lowering once a time course of onset of effect could be established.
(§1) A typical protocol for measuring Aβ42 lowering in vivo is shown but it is only one of many variations that could be used to optimize the levels of detectable Aβ. For example, Aβ42 lowering compounds were formulated in 20% of Captisol® (a sulfobutyl ether of β-cyclodextrin) in water or 20% hydroxypropyl β cyclodextrin. The Aβ42 lowering agents were administered as a single oral dose or by any acceptable route of administration to overnight fasted animals. After 4 h, the animals were sacrificed and Aβ42 levels were analysed.
(§2) Blood was collected by decapitation and exsanguinations in EDTA-treated collection tubes. Blood was centrifuged at 1900 g for 10 minutes (min) at 4° C. and the plasma recovered and flash frozen for later analysis. The brain was removed from the cranium and hindbrain. The cerebellum was removed and the left and right hemisphere were separated. The left hemisphere was stored at −18° C. for quantitative analysis of test compound levels. The right hemisphere was rinsed with phosphate-buffered saline (PBS) buffer and immediately frozen on dry ice and stored at −80° C. until homogenization for biochemical assays.
Mouse brains from non-transgenic animals were resuspended in 8 volumes of 0.4% DEA (diethylamine)/50 mM NaCl containing protease inhibitors (Roche-11873580001 or 04693159001) per gram of tissue, e.g. for 0.158 g brain, add 1.264 ml of 0.4% DEA. All samples were homogenized in the FastPrep-24 system (MP Biomedicals) using lysing matrix D (MPBio #6913-100) at 6 m/s for 20 seconds. Homogenates were centrifuged at 221.300×g for 50 min. The resulting high speed supernatants were then transferred to fresh eppendorf tubes. Nine parts of supernatant were neutralized with 1 part 0.5 M Tris-HCl pH 6.8 and used to quantify Aβtotal and Aβ42.
To quantify the amount of Aβtotal and Aβ42 in the soluble fraction of the brain homogenates, Enzyme-Linked-Immunosorbent-Assays were used. Briefly, the standards (a dilution of synthetic Aβ1-40 and Aβ-42, Bachem) were prepared in 1.5 ml Eppendorf tube in Ultraculture, with final concentrations ranging from 10000 to 0.3 pg/ml. The samples and standards were co-incubated with HRPO-labelled N-terminal antibody for Aβ42 detection and with the biotinylated mid-domain antibody 4G8 for Aβtotal detection. 50 μl of conjugate/sample or conjugate/standards mixtures were then added to the antibody-coated plate (the capture antibodies selectively recognize the C-terminal end of Aβ42, antibody JRF/cAB42/26, for Aβ42 detection and the N-terminus of Aβ, antibody JRF/rAβ/2, for Aβtotal detection). The plate was allowed to incubate overnight at 4° C. in order to allow formation of the antibody-amyloid complex. Following this incubation and subsequent wash steps the ELISA for Aβ42 quantification was finished by addition of Quanta Blu fluorogenic peroxidase substrate according to the manufacturer's instructions (Pierce Corp., Rockford, Il). A reading was performed after 10 to 15 min (excitation 320 nm/emission 420 nm).
For Aβtotal detection, a Streptavidine-Peroxidase-Conjugate was added, followed 60 min later by an addional wash step and addition of Quanta Blu fluorogenic peroxidase substrate according to the manufacturer's instructions (Pierce Corp., Rockford, Il). A reading was performed after 10 to 15 min (excitation 320 nm/emission 420 nm). […]

[2] = Central brain availability: compound levels in plasma and brain; format: in vivo; conditions: mouse, dose 30 mg/kg oral dosing
Experimental: as §1, §2
Also the central brain availability of Compounds 3, 5, 10 and A were measured:
The results are shown in Table 5 (dose 30 mg/kg oral dosing; 4 hours): […]

[3] = Liver metabolic stability assay, mouse liver microsomes; format: in vitro ADME; conditions: 1 μM substrate, 1 mg/ml protein, 37° C., 15 minutes
Experimental: (§3) Each compound was spiked into a suspension of liver microsomes prepared from the species under investigation, at a final substrate concentration of 1 μM, and a protein concentration of 1 mg/ml, and pre-incubated at 37° C. for 11 minutes. The incubation also contains a NADPH (3-nicotinamide adenine dinucleotide phosphate, reduced) regenerating system. After this preincubation period, NADP (β-nicotinamide adenine dinucleotide phosphate) was added to the active incubations, and the incubations maintained at 37° C. for 15 minutes, during which period metabolism can take place. After 15 minutes, 2 volumes of DMSO (dimethylsulfoxide) were added to each active incubation to inactivate and precipitate proteins. Control incubations were not preincubated at 37° C., but instead were quenched by the addition of DMSO prior to the addition of NADP. Following centrifugation, the supernatant from each incubation was transferred to a separate analysis plate, and analysed for the concentration of the parent compound by LC/MS/MS using a compound-specific LC/MS/MS method and a generic HPLC gradient. The turnover of the parent compound is expressed as the % reduction in concentration in the analyte samples compared to that in the control incubations. Each incubation is performed in triplicate.

[4] = Liver metabolic stability assay, human liver microsomes; format: in vitro ADME; conditions: 1 μM substrate, 1 mg/ml protein, 37° C., 15 minutes
Experimental: as §3

[5] = untreated animals (Ctrl) set at 100, read-out: Aβ42 (% vs Ctrl) _Mean
[6] = untreated animals (Ctrl) set at 100, read-out: Aβtotal (% vs Ctrl)_Mean
[7] = untreated animals (Ctrl) set at 100, 30 mg/kg

Row | SMILES | melting point [°C] | response vs control in vivo at 30 mg/kg [1, 5] [%] | response vs control in vivo at 30 mg/kg [1, 6] [%] | other results
1 | COc1cc(Nc2nc(Oc3ccccc3Cl)n(C(C)C)n2)ccc1-n1cnc(C)n1 [Compound 3] | – | – | – | concentration at 4 h ([2]; brain, read-out: Brain): 8510 ng/g; concentration at 4 h ([2]; plasma, read-out: Plasma): 7740 ng/mL
2 | COc1cc(Nc2nc(-c3ccc(F)cc3)n(C)n2)ccc1-n1cnc(C)c1 [Compound 10] | 247.1 | 68 | 110 | concentration at 4 h ([2]; brain, read-out: Brain): 4640 ng/g; concentration at 4 h ([2]; plasma, read-out: Plasma): 2700 ng/mL; turnover of the parent compound (% reduction in concentration vs control incubations), mouse liver microsomes [3]: 10%; turnover of the parent compound (% reduction in concentration vs control incubations), human liver microsomes [4]: 14%
3 | COc1cc(Nc2nc(-c3cccc(C(F)(F)F)c3)n(C(C)C)n2)ccc1-n1cnc(C)c1 [Compound 46] | 186.8 | 61 | 98 | –
4 | COc1cc(Nc2nc(Oc3ccccc3Cl)n(C(C)C)n2)ccc1-n1cnc(C)c1 [Compound 52] | 167.1 | 45 | 112 | –
5 | COc1cc(Nc2nc(N3CCOC(c4cccc(C)c4)C3)n(C(C)C)n2)ccc1-n1cnc(C)c1 (stereo not drawn) [Compound 58] | – | 88 | 89 | –
6 | COc1cc(Nc2nc(N3CCCC(C(F)(F)F)C3)n(C(C)C)n2)ccc1-c1ccnc(C)c1 (stereo not drawn) [Compound 67] | – | 60 | 89 | –
7 | COc1cc(Nc2nc(Oc3ccccc3Cl)n(C(C)C)n2)ccc1-c1ccnc(C)c1 [Compound 69] | – | 63 | 97 | –
8 | Cc1cc(-c2ccc(Nc3nc(N4CCOC(C(F)(F)F)C4)n(C(C)C)n3)cc2)ccn1 (stereo not drawn) [Compound 133] | – | 67 | 94 | –
9 | Cc1cc(-c2ccc(Nc3nc(Oc4ccccc4Cl)n(C(C)C)n3)cc2)ccn1 [Compound 140] | 142.5 | 83 | 86 | –
10 | Cc1cc(-c2ccc(Nc3nc(Oc4ccccc4Cl)n(C(C)C)n3)cc2F)ccn1 [Compound 141] | – | 78 | 98 | –
11 | COc1cc(Nc2nc(Oc3c(F)cccc3Cl)n(C(C)C)n2)ccc1-c1ccnc(C)c1 [Compound 160] | – | 77 | 83 | –
12 | COc1cc(Nc2nnc(-c3ccc(F)cc3)[nH]2)ccc1-n1cnc(C)c1 [Compound A, reference compound] | – | 101 | 106 | concentration at 4 h ([2]; brain, read-out: Brain): 0 ng/g; concentration at 4 h ([2]; plasma, read-out: Plasma): 0 ng/mL; turnover of the parent compound (% reduction in concentration vs control incubations), mouse liver microsomes [3]: 22%; turnover of the parent compound (% reduction in concentration vs control incubations), human liver microsomes [4]: 64%

Now from value to compound, other results behind:

Row | melting point [°C] | SMILES | response vs control in vivo at 30 mg/kg [1, 5] [%] | response vs control in vivo at 30 mg/kg [1, 6] [%] | other results
13 | 134 | COc1cc(Nc2nc(N3CCCC(C(F)(F)F)C3)n(C(C)C)n2)ccc1-n1cnc(C)n1 (racemic) [Compound 59] | 69 | 94 | –
14 | 141.6 | COc1cc(Nc2nc(N3CCCC(C(F)(F)F)C3)n(C(C)C)n2)ccc1-n1cnc(C)n1 (single isomer, unassigned) [Compound 108] | 70 | – | Aβtotal (% vs Ctrl)_Mean [1, 7]: 94 % vs Ctrl
15 | 140.1 | COc1cc(Nc2nc(N3CCCC(C(F)(F)F)C3)n(C(C)C)n2)ccc1-n1cnc(C)n1 (single isomer, unassigned) [Compound 109] | – | – | Aβ42 (% vs Ctrl) _Mean [1, 7]: 85 % vs Ctrl; Aβtotal (% vs Ctrl)_Mean [1, 7]: 117 % vs Ctrl
16 | 166.6 | COc1cc(Nc2nc(Oc3cccc(C(F)(F)F)c3)n(C(C)C)n2)ccc1-n1cnc(C)n1 [Compound 5] | – | – | concentration at 4 h ([2]; brain, read-out: Brain): 1630 ng/g; concentration at 4 h ([2]; plasma, read-out: Plasma): 1630 ng/mL
17 | 173 | COc1cc(Nc2nc(N3CCCC(C(F)(F)F)C3)n(C(C)C)n2)ccc1-n1cnc(C)c1 (stereo not drawn) [Compound 54] | 46 | 88 | –
